The test system of assay [1] is phospho-p90 RSK (RSK1 Thr359/Ser363) in A375 (Braf V600E) cells. Briefly: Phospho-p90 RSK ELISA using A375 (Braf V600E) cells. The following applies: Homo sapiens, A-375, 2 hours compound treatment, read-out: Cellular Phospho-p90RSK IC50. It is filed as cell-based.
The test system of assay [2] is H358 (Kras, G12C) cells. Briefly: Tumor cell line proliferation assay (CellTiter Glo), H358. The format is cell-based. The settings on record: Homo sapiens, NCI-H358, 96 hours. In general terms: In ATP-based viability assays light output follows the ATP content of the culture.
Assay [3] relates to WM-266-4 cells. Briefly: Tumor cell line proliferation assay (CellTiter Glo), WM-266-4. It is filed as cell-based. The following applies: Homo sapiens, 96 hours, read-out: WM-266-4 (V599D) Cell Proliferation IC50.
For assay [4], the system named is A375 cells. Put plainly: Tumor cell line proliferation assay (CellTiter Glo), A375. The following applies: Homo sapiens, A-375, 96 h, read-out: A375 (V599E) Cell Proliferation IC50. It is filed as cell-based.
Assay [5] deals with ERK2 enzyme (Homo sapiens (Human), UniProt P28482). Briefly: Z'-LYTE kinase assay, inhibition of ERK activity. It is filed as biochemical. The following applies: 100 μM ATP. How it is done: The inhibition of ERK activity by the compounds disclosed herein was determined using the Z′-LYTE kinase assay kit (Life Technologies) with a Ser/Thr 3 peptide substrate (Life Technologies) according to manufacturers' instructions. […] The IC50 values for the compounds were determined with 3-fold serial dilutions in duplicate. […] The final DMSO concentration in the assay was 1%. Final reaction volume was 20 μL/well in 384-well plates. Kinase reactions were conducted or 1 hour followed by the assay development reaction (1 hour) in a 20 ul/well in a 384 well plate format.
ERK2 enzyme, sequence (P28482 whole entry): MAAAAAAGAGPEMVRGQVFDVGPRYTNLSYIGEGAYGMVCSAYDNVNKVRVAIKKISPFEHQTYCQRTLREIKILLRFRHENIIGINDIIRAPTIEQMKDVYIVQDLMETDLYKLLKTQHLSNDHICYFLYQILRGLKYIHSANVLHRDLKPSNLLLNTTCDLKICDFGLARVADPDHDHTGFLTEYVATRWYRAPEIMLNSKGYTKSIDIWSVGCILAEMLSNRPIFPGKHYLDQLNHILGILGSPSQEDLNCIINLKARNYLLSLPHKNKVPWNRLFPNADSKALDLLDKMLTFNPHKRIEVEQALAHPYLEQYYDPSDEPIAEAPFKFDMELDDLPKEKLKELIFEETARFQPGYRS

The mark [6] stands for this setting: In vitro Erk2, Z'-LYTE kinase assay.

SMILES strings stand for the structures.

Consider `O=C1Nc2cc3[nH]nc(-c4ccncc4)c3cc2CN1Cc1ccccc1` [Example 1, 6-benzyl-3-(pyridin-4-yl)-1,5,6,8-tetrahydro-7H-pyrazolo[4,3-g]quinazolin-7-one], for which the IC50 in assay [1], in assay [2], in assay [3] and in assay [4] was at most 250 nM in each case.

As for `Cc1cc(-c2n[nH]c3cc4c(cc23)CN([C@H](C)c2ccccc2)C(=O)N4)ccn1` [Example 2, (R)-3-(2-methylpyridin-4-yl)-6-(1-phenylethyl)-5,6-dihydro-1H-pyrazolo[4,3-g]quinazolin-7(8H)-one], the IC50 in assay [1] was at most 250 nM; in assay [3] it was 250 to 1000 nM; in assay [4], 250 to 1000 nM.

On to `O=C1Nc2cc3[nH]nc(-c4ccncc4)c3cc2CN1Cc1cccc(Cl)c1` [Example 3], for which the IC50 in assay [1], in assay [3] and in assay [4] was at most 250 nM in each case.

On to `Cc1cc(-c2n[nH]c3cc4c(cc23)CN(Cc2cccc(Cl)c2)C(=O)N4)ccn1` [Example 4], for which the IC50 in assay [1], in assay [3] and in assay [4] was at most 250 nM each time.

`Cc1cc(-c2n[nH]c3cc4c(cc23)CN([C@H](C)c2ccc(F)cc2)C(=O)N4)ccn1` [Example 5]: the IC50 in assay [1] was 250 to 1000 nM; in assay [3], 250 to 1000 nM; in assay [4], above 1000 nM.

For `Cc1cc(-c2n[nH]c3cc4c(cc23)CN(Cc2cc(F)cc(F)c2)C(=O)N4)ccn1` [Example 7], the IC50 is at most 250 nM in assay [1], at most 250 nM in assay [3] and 250 to 1000 nM in assay [4].

For `Cc1cc(-c2n[nH]c3cc4c(cc23)CN(Cc2ccc(F)c(Cl)c2)C(=O)N4)ccn1` [Example 8], the values for the IC50 in assay [1], in assay [3] and in assay [4] were at most 250 nM, at most 250 nM and 250 to 1000 nM, respectively.

For `COc1ncccc1CN1Cc2cc3c(-c4ccnc(C)c4)n[nH]c3cc2NC1=O` [Example 9], the results for the IC50 in assay [1], in assay [3] and in assay [4] were 250 to 1000 nM, 250 to 1000 nM and above 1000 nM, respectively.

With `COc1ccc(CN2Cc3cc4c(-c5ccnc(C)c5)n[nH]c4cc3NC2=O)cc1` [Example 10], the IC50 in assay [1] was at most 250 nM; in assay [3] it was at most 250 nM; in assay [4], 250 to 1000 nM.

Turning to `Cc1cc(-c2n[nH]c3cc4c(cc23)CN(Cc2ccc(F)cc2F)C(=O)N4)ccn1` [Example 11], the IC50 in assay [1] was at most 250 nM; in assay [3], at most 250 nM; in assay [4] it was 250 to 1000 nM.

For `Cc1cc(-c2n[nH]c3cc4c(cc23)CN(Cc2ccc(C(F)(F)F)cc2)C(=O)N4)ccn1` [Example 12], the values for the IC50 in assay [1], in assay [3] and in assay [4] were at most 250 nM, at most 250 nM and 250 to 1000 nM, respectively.

For the compound `Cc1cc(-c2n[nH]c3cc4c(cc23)CN(Cc2ccc(F)c(F)c2)C(=O)N4)ccn1` [Example 13], the values for the IC50 in assay [1], in assay [3] and in assay [4] were at most 250 nM, 250 to 1000 nM and 250 to 1000 nM, respectively.

With `Cc1cc(-c2n[nH]c3cc4c(cc23)CN(Cc2ccc(Cl)cc2)C(=O)N4)ccn1` [Example 14], the figures for the IC50 in assay [1], in assay [3] and in assay [4] were at most 250 nM, 250 to 1000 nM and 250 to 1000 nM, respectively.

With `Cc1cc(-c2n[nH]c3cc4[nH]c(=O)n(Cc5ccc(F)c(Cl)c5)c(=O)c4cc23)ccn1` [Example 15], the IC50 in assay [1] was 250 to 1000 nM; in assay [3], above 1000 nM; in assay [4], above 1000 nM.

With `Cc1cc(-c2n[nH]c3cc4c(cc23)CN([C@H](C)c2ccc(Cl)cc2)C(=O)N4)ccn1` [Example 16], the IC50 in assay [1] was at most 250 nM; in assay [3], 250 to 1000 nM; in assay [5] (In vitro, ERK2 enzyme), 50 to 250 nM; in assay [4], 250 to 1000 nM.

Take `Cc1cc(-c2n[nH]c3cc4c(cc23)CN(C2(c3ccc(F)cc3)CC2)C(=O)N4)ccn1` [Example 17]: the IC50 in assay [1] is 250 to 1000 nM; in assay [3] it was above 1000 nM; in assay [4] it was above 1000 nM.

`Cc1cc(-c2n[nH]c3cc4c(cc23)CN(CCc2ccc(F)cc2)C(=O)N4)ccn1` [Example 18]: the IC50 in assay [1] was at most 250 nM; in assay [3], 250 to 1000 nM; in assay [4] it was 250 to 1000 nM.

Take `Cc1cc(-c2n[nH]c3cc4[nH]c(=O)n(Cc5ccccc5)c4cc23)ccn1` [Example 19]: the values for the IC50 in assay [1], in assay [3] and in assay [4] were 250 to 1000 nM, above 1000 nM and above 1000 nM, respectively.

Regarding `Cc1cc(-c2n[nH]c3cc4[nH]c(=O)n(CCc5ccccc5)c4cc23)ccn1` [Example 20], the IC50 in assay [1], in assay [3] and in assay [4] was above 1000 nM each time.

As to `Cc1cc(-c2n[nH]c3cc4[nH]c(=O)c(Cc5ccc(F)cc5)cc4cc23)ccn1` [Example 21], the IC50 in assay [1], in assay [3] and in assay [4] was 250 to 1000 nM each time.

In the case of `Cc1cc(-c2n[nH]c3cc4[nH]c(=O)c(C(C)c5ccccc5)cc4cc23)ccn1` (centres unmarked) [Example 22], the IC50 in assay [1], in assay [3] and in assay [4] was at most 250 nM in each case.

Regarding `Cc1cc(-c2n[nH]c3cc4c(cc23)CN([C@H](C)c2ccc(C#N)cc2)C(=O)N4)ccn1` [Example 23], the IC50 in assay [1] was at most 250 nM; in assay [3], above 1000 nM; in assay [4], 250 to 1000 nM.

As for `Cc1cc(-c2n[nH]c3cc4[nH]c(=O)n(Cc5cccc(Cl)c5)c(=O)c4cc23)ccn1` [Example 24], the IC50 in assay [3] and in assay [4] was above 1000 nM each time.

As to `Cc1cc(-c2n[nH]c3cc4c(cc23)CN(C2CN(CC3CCCC3)CC(F)(F)C2)C(=O)N4)ccn1` (centres unmarked) [Example 201], the IC50 in assay [1], in assay [2] and in assay [4] was above 1000 nM each time.

Turning to `Cc1cc(-c2n[nH]c3cc4c(cc23)CN(C2CN(Cc3cc(F)cc(F)c3)CC(F)(F)C2)C(=O)N4)ccn1` (centres unmarked) [Example 202], the IC50 in assay [1], in assay [2] and in assay [4] was above 1000 nM each time.

As for `Cc1cc(-c2n[nH]c3cc4c(cc23)CN(C2CCCCC2)C(=O)N4)ccn1` [Example 204], the IC50 in assay [1] is 250 to 1000 nM; in assay [2], above 1000 nM; in assay [4], 250 to 1000 nM.

Turning to `Cc1cc(-c2n[nH]c3cc4c(cc23)CN(C2CCCC2)C(=O)N4)ccn1` [Example 205], the IC50 in assay [1] was at most 250 nM; in assay [2], 250 to 1000 nM; in assay [4], 250 to 1000 nM.

Consider `Cc1cc(-c2n[nH]c3cc4c(cc23)CN([C@@H]2CCN(CC(F)(F)F)C2)C(=O)N4)ccn1` [Example 214], for which the IC50 in assay [1], in assay [2] and in assay [4] was at most 250 nM each time.

Consider `Cc1cc(-c2n[nH]c3cc4[nH]c(=O)c(C(O)c5ccccc5)cc4cc23)ccn1` (centres unmarked) [Example 221], for which the IC50 in assay [1], in assay [2] and in assay [4] was 250 to 1000 nM each time.

Turning to `Cc1cc(-c2n[nH]c3cc4c(cc23)CN([C@@H]2CN(CC(F)(F)F)C[C@H]2c2ccccc2)C(=O)N4)ccn1` [Example 222], the IC50 was at most 250 nM in assay [1], 250 to 1000 nM in assay [2] and 250 to 1000 nM in assay [4].

As for `O=C1Nc2cc3[nH]nc(CC4CCOCC4)c3cc2CN1[C@@H]1CN(CC(F)(F)F)C[C@H]1c1ccccc1` [Example 361], the IC50 in assay [1] is at most 250 nM; in assay [5] (setting [6]), 50 to 250 nM.

Take `COc1ccc(-c2n[nH]c3cc4[nH]c(=O)c(C5CCCN(Cc6ccccc6)C5)cc4cc23)cn1` (centres unmarked) [Example 367]: the values for the IC50 in assay [1] and in assay [5] (setting [6]) were 250 to 1000 nM and below 50 nM, respectively.

For the origin of these results see patent US10301317B2, “Inhibitors of ERK and methods of use” (Kura Oncology, Inc., priority 2013, dated 2019).
